Results from BigSolDB 2.1.

O=[N+]([O-])c1ncccc1O
solubility (mole fraction)
Conditions	in THF	in acetone	in acetonitrile	in ethanol	in ethyl acetate	in isopropanol	in methanol	in n-hexane	in n-propanol	in water
278.15 K	0.213	0.157	0.113	0.0236	0.108	0.0158	0.0395	0.00055	0.0299	0.00083
283.15 K	0.243	0.184	0.141	0.0334	0.128	0.0226	0.0551	0.00077	0.0391	0.00107
288.15 K	0.274	0.219	0.171	0.0482	0.151	0.0318	0.0807	0.00105	0.0523	0.00149
293.15 K	0.312	0.259	0.207	0.0653	0.181	0.0442	0.111	0.00144	0.0716	0.0021
298.15 K	0.35	0.304	0.247	0.0924	0.215	0.0621	0.153	0.00192	0.0947	0.00283
303.15 K	0.396	0.354	0.299	0.128	0.254	0.0863	0.206	0.00266	0.127	0.00393
308.15 K	0.446	0.41	0.359	0.173	0.301	0.12	0.271	0.00373	0.17	0.00544
313.15 K	0.502	0.474	0.428	0.232	0.357	0.165	0.352	0.00522	0.224	0.00753
318.15 K	0.57	0.544	0.502	0.306	0.423	0.224	0.446	0.00736	0.292	0.0109
